Reference: US11542282B2, “Low affinity poly(AD-ribose) polymerase 1 dependent cytotoxic agents” (THE TRUSTEES OF THE UNIVERSITY OF PENNSYLVANIA, priority 2018, dated 2023)

Assays:
[1] = PET imaging of brain uptake in rhesus macaques; format: in vivo; settings: intravenous injection, all brain regions, FIG. 5A
Procedure: All animal studies were performed under protocols approved by the University of Pennsylvania Institutional Animal Care and Use Committee. Male rhesus macaques (13-21 year old) were sedated with ketamine/dexdomidor and anesthesia maintained for imaging with 1% isoflurane. Temperature was maintained with a recirculating water warm pad and vital signs such as blood pressure, pulse oximetry, and EKG were monitored continuously. Three rhesus macaques were scanned on the G-PET, a high sensitivity, high resolution PET scanner using gadolinium orthosilicate crystals incorporated into an Anger-logic detector developed for brain imaging. Data was acquired for up to 50 min (6×10 sec, 3×60 sec, 3×120 sec, 3×180 sec, 4×300 sec, and 1 ×600 sec) in list mode after an intravenous injection of 101.6 MBq [^18F]FTT to one of the rhesus macaques, and 91.4-128.8 MBq [^18F]31 to two of the rhesus macaques. A venous blood sample was drawn into a heparinized syringe at 37 min post […] injection for metabolite analysis. […]
(§1) These images are similar to the those obtained and expected with [^18F]FTT (FIG. 5B), showing the PARPi to be non-BBB penetrable. Metabolic stability of [^18F]31 was assessed using the monkey blood from each imaging study and found 42% and 45% of the parent compound intact at 40 min and 37 min, respectively.

[2] = Metabolite analysis of monkey blood from the imaging studies; format: in vivo, rhesus macaques
Procedure: All animal studies were performed under protocols approved by the University of Pennsylvania Institutional Animal Care and Use Committee. Male rhesus macaques (13-21 year old) were sedated with ketamine/dexdomidor and anesthesia maintained for imaging with 1% isoflurane. Temperature was maintained with a recirculating water warm pad and vital signs such as blood pressure, pulse oximetry, and EKG were monitored continuously. Three rhesus macaques were scanned on the G-PET, a high sensitivity, high resolution PET scanner using gadolinium orthosilicate crystals incorporated into an Anger-logic detector developed for brain imaging. […]
The blood samples were centrifuged at 3000 G for 10 min to separate plasma and red blood cells. […] After the supernatant had been separated from the pellet, each portion was counted with a gamma counter (PerkinElmer Wizard 2480) to determine the extraction efficiency. […] The collected HPLC fractions were measured by Gamma Counter for further data analysis. Meanwhile the cold reference was also injected and monitored at 254 nm UV wavelength.
as §1

[3] = Metabolic stability in rodent studies (mice blood and brain); format: in vivo; settings: 5 min
Procedure: Rodent studies were then performed with [^18F]31, including control and P-gp knockout (k/o) mice models to validate the tracer as a non-P-gp substrate.

brain uptake (PET) [1]: low brain uptake | brain uptake (PET) ([1]; listed as [18F]31): no appreciable brain uptake | parent compound intact ([2]; 37 min): 45% | parent compound intact ([2]; 40 min): 42% | decomposition of the parent compound [3]: over 80%
Compound: O=C(c1cc(Cc2n[nH]c(=O)c3ccccc23)ccc1F)N1CCC(OCC[18F])CC1 [[^18F]31]
